The subject of one series is immune-related genes. Nature of the series: NanoString immune profiling of whole blood from breast cancer patients given ganetespib. The class given is in vivo, human. The note with it: 20-24 hours post intravenous drug administration, recommended Phase II dose. The protocol: Blood samples for gene expression analyses were obtained with informed consent from patients participating in an IRB-approved clinical trial coordinated by the Dana-Farber Cancer Institute, Boston, Mass. (DFCI 11-477, NCT01560416). All samples were processed and analyzed by collaborating investigators in an anonymous fashion to preserve patient confidentiality.
Gene expression measurements using Nanostring codesets were performed with NanoString XT GEx kits. Analyses were performed on total RNA from clinical samples or mouse tumor tissue following manufacturer's instructions. Briefly, 100 ng total RNA (measured by Qubit (Invitrogen)), was mixed with Capture and Reporter probe sets and hybridized for 16-20 hours at 65° C. prior to ramping down to hold at 4° C. Hybridized samples were processed on a Nanostring Prep Station according to manufacturer's instructions and then scanned with an FOV setting of 1100. All files (.rcc) were analyzed using nSolver v3.0 software.
As an approach to examine the impact of HSP90 compromise on the immune system in human cancer patients exposed to recommended dosing of an HSP90i, the RNA expression of immune-related genes in whole blood collected from 20 patients was profiled. […]

The subject of series [1] is human peripheral blood mononuclear cells. Nature of the series: RNA sequencing of ex vivo human peripheral blood mononuclear cells. It counts as cell-based. To be noted: 500 nM for 20 hrs. The protocol:
Whole blood was collected into lithium-heparin tubes and processed with Histopaque-1077 (Sigma) to isolate peripheral blood mononuclear cells per supplier's instructions. After overnight culture in RPMI160 with 20% autologous plasma, ganetespib (500 nM) or an equal volume of solvent vehicle (DMSO 0.1% v/v) was added to duplicate dishes. Incubation was continued for 24 hours after which cells were collected by centrifugation, lysed in RLT buffer (Qiagen) and total RNA isolated using an RNeasy kit per manufacturer's instructions (Qiagen). Sequencing library preparation was performed by the Whitehead Genome Technology Core using standard Illumina protocols and TruSeq adapters. Single-end, 40 bp sequencing was performed on a HiSeq 2000 instrument. Adapter sequences were trimmed, and reads were aligned to […] using TopHat2 and rpkm values generated with Cufflinks. Differential expression analysis was performed with the Bioconductor package DEseq.
To evaluate the immunosuppressive effect of high level HSP90 inhibition in a more controlled fashion, freshly isolated human peripheral blood mononuclear cells were cultured in ganetespib (500 nM for 20 hrs.) and the effects on RNA expression genome-wide were measured (FIG. 2A).

For series [2] the following is noted: cited from earlier work.
[3] abbreviates: phase I, intravenous infusion days 1, 8 and 15, 4-weekly schedule.

Consider `CC(C)c1cc(-c2n[nH]c(=O)n2-c2ccc3c(ccn3C)c2)c(O)cc1O` [Ganetespib], for which, in the series with immune-related genes, the “expression of immune-related genes in whole blood” value is reported as “broad down-regulation of expression across diverse immune-related genes”. In series [1], the “most downregulated Gene Ontology categories” value was “immune-related pathways”; the “most upregulated Gene Ontology categories” value was “RNA splicing and protein folding”. Also, in series [2] (clinical use), the “side effects / adverse effects” value is “diarrhea, fatigue, nausea, and anorexia”. The “MTD as a combination therapy with crizotinib” value in series [2] (days 1 and 8 of a 21-day cycle, phase II) is 200 mg/m2. Further, in series [2] (human, in vivo), the ocular toxicity entry is “No ocular toxicity has been reported”. In series [2] (setting [3]), the “MTD as a monotherapy” value is recorded as 216 mg/m^2 and the “highest dose with acceptable toxicity (RP2D)” value is recorded as 200 mg/m^2.
